The subject of one experiment is IL-6/STAT3 signaling. The settings on record: background statement; cited from earlier work.
The test system of another experiment is NF-κB. Put plainly: NF-κB-dependent transcriptional activity, Jurkat-LTR-Luc (Jurkat 5.1) cells stimulated with TNF-α. The experiment is classed as cell-based. The settings on record: TNF-α (2 ng/ml) 6 h, luciferase activity, read-out: IC50 anti-NF-κB. The method, then:
The potency of (−)-Galiellalactone and compound examples of the invention in inhibiting NF-κB-dependent transcriptional activity was assayed in a Jurkat-LTR-Luc cell line. This cellular model have been widely used for the screening of natural and synthetic NF-κB inhibitors (Appendino et al, J Nat Prod. 2007, 70(4), 608-612; J Nat Prod. 2006, 69(7), 1101-1104; Marquez et al, Antiviral Res. 2005, 66(2-3), 137-145) Jurkat 5.1 cells were preincubated for 30 min with increasing concentrations of the compounds dissolved in DMSO followed by stimulation with TNF-α (2 ng/ml) for 6 h. Cells were washed twice in PBS and lysed in 25 mM Tris-phosphate, pH 7.8, 8 mM MgCl2, 1 mM DTT, 1% Triton X-100, and 7% glycerol for 15 min at room temperature. Then the lysates were spun down and the supernatant was used to measure luciferase activity using an Autolumat LB 9510 (Berthold Technologies). Protein concentration was determined by the Bradford method (Bio-Rad, Richmond, Calif.). Results below represent the 1050 for each compound in this assay.

A further experiment concerns LNCaP-IL6 cells. Put plainly: WST-1 proliferation assay, LNCaP-IL6 cells. The experiment is classed as cell-based, human. The protocol:
(§1) The human prostate cancer cell lines DU145, LNCaP (from the American Type culture Collection, ATCC) and long-term interleukin-6 (IL-6) stimulated LNCaP cells (LNCaP-IL6 cells) (Hobisch, Ramoner et al. 2001) were used. The cells were cultured in RPMI 1640 medium supplemented with 10% FBS and 1% penicillin-streptomycin. All cells were incubated at 37° C. in a humidified atmosphere of […] and 5% CO2.
(§2) WST-1 proliferation assay was performed to study the effects of the test items on the proliferation and viability of cultured prostate cancer cells. LNCaP and DU145 cells were cultured in 96-well plates at the density of 2 000 cells/well in 200 μl of medium. Cells were allowed to set for 24 h. The cells were treated with 0, 2.5, 5 or 10 μM of the specific substance for 24 h and 48 h. Samples were made in triplicate. 20 μl WST-1 solution (Roche Applied Science, Mannheim, Germany) was added per well and incubated at 37° C. for 4 h. The absorbance of each well was measured using a scanning multiwell spectrophotometer, ELISA reader at a wavelength of 450 nm and reference wavelength of 690 nm. The results are presented as percent of untreated control cells or the absorbance value.

Experiment [1] concerns DU145. Put plainly: WST-1 proliferation assay, DU145 cells (Example 16). The experiment is classed as cell-based, human. The method, then: as §1, §2
Experiment [2] deals with STAT-3 transcription factor. Put plainly: STAT3 inhibition, luciferase reporter (4xM67 pTATA TK-Luc) in HeLa cells stimulated with γ-Interferon. The experiment is classed as cell-based. The conditions noted are these: γ-Interferon 8 h, luciferase activity, read-out: Anti STAT3 IC50. The protocol:
HeLa cells (4×10^4/ml) were transiently transfected with a luciferase reporter plasmid (4×M67 pTATA TK-Luc) driven by artificial promoter containing 4 repeated M67 binding sites in tandem for the STAT-3 transcription factor. The transfections were performed for 24 h using Roti-Fect reagent (Carl Roth, Karlsruhe, Germany) according to the manufacturer's recommendations. After incubation with different concentrations of the extracts for 30 min the transfected cells were stimulated for 8 h with γ-Interferon. Then, the cells were lysed in 25 mM Tris-phosphate pH 7.8, 8 mM MgCl2, 1 mM DTT, 1% Triton X-100, and 7% glycerol. Luciferase activity was measured as described for 5.1 cells.
γ-Interferon induces an average of 5-6 fold induction of the luciferase activity compared to non stimulated cells and this represent the index of transactivation that is represented in our experiment as the maximum levels of γ-Interferon-induced STAT-3 activation (100%). Results below represent the IC50 for each compound in this assay. The IC50 means the concentration of each compound that reduces luciferase activity by 50% and it was calculated by GraphPad software.

Experiment [3] concerns DU145. Put plainly: WST-1 proliferation assay, DU145 cells (Example 17). It counts as cell-based, human. The conditions noted are these: 25.0 μM.
The test system of experiment [4] is DU145. Described as above. The experiment is classed as cell-based, human. The protocol: The human prostate cancer cell line DU145 was used. The cells were cultured in RPMI 1640 medium supplemented with 10% FBS and 1% penicillin-streptomycin. All cells were incubated at 37° C. in a humidified atmosphere of […] and 5% CO2.
WST-1 proliferation assay was performed to study the effects of the test items on the proliferation and viability of cultured prostate cancer cells. DU145 cells were cultured in 96-well plates at the density of 2 000 cells/well in 200 μl of medium. Cells were allowed to set for 24 h and 48 h. The cells were treated with 0.5, 1.0, 2.5, 5.0, 10, and 50 μM of the specific substance for 24 h and 48 h. Samples were made in triplicate. 20 μl WST-1 solution (Roche Applied Science, Mannheim, Germany) was added per well and incubated at 37° C. for 4 h. The absorbance of each well was measured using a scanning multiwell spectrophotometer, ELISA reader at a wavelength of 450 nm and reference wavelength of 690 nm. The results are presented as percent of untreated control cells or the absorbance value.

These results are taken from patent publication US9150531B2, “Tricyclic lactones for treatment of cancer” (Glactone Pharma Development AB, priority 2010, dated 2015).

Structures are written as SMILES. Read-outs that look alike come from different tables or passages of the source.

`C[C@@H]1C=C2C(=O)O[C@@H]3CC[C@H](C1)C23O` (single isomer, unassigned; (-)) [(−)-Galiellalactone, reference compound]: the “inhibition of IL-6/STAT3 signaling” value with IL-6/STAT3 signaling is “submicromolar”. Moreover, the values for the half-inhibitory concentration (IC50) (in the experiment with NF-κB; in experiment [2]) were 5.5 µM and 7.7 µM, respectively. Further, the “% Proliferation (vs control) 24 h LNCaP-IL6” value worked out at 90.91% in the experiment with LNCaP-IL6 cells (2.5 uM), 68.76% with LNCaP-IL6 cells (5 uM) and 77.11% in the experiment with LNCaP-IL6 cells (10 uM). The figures for the “% Proliferation (vs control) 48 h LNCaP-IL6” value with LNCaP-IL6 cells (2.5 uM), in the experiment on LNCaP-IL6 cells (5 uM) and with LNCaP-IL6 cells (10 uM) were 96.78%, 68.76% and 23.22%, respectively. In addition, the “% Proliferation (vs control) 24 h DU145” value is 84.24% with DU145 [1] (2.5 uM), 63.19% in the experiment on DU145 [1] (5 uM) and 48.44% in the experiment with DU145 [1] (10 uM). Further, the results for the “% Proliferation (vs control) 48 h Du145” value in the experiment with DU145 [1] (2.5 uM), in the experiment on DU145 [1] (5 uM) and in the experiment with DU145 [1] (10 uM) were 76.36%, 38.51% and 22.24%, respectively.

In the case of `C[C@H]1C=C2C(=O)OC3C(C)(C)C[C@H](C1)[C@]23O` (some centres unmarked) [Example 1, 2a^1-hydroxy-4,7,7-trimethyl-4,5,5a,6,7,7a-hexahydroindeno[1,7-bc]furan-2(2a^1H)-one], the IC50 in the experiment with NF-κB (Homo sapiens) is 2.66 µM; in experiment [2] (Homo sapiens), 2.1 µM. Besides, the “% Proliferation (vs control) 24 h LNCaP-IL6” value in the experiment on LNCaP-IL6 cells (2.5 uM) is 65.41%; with LNCaP-IL6 cells (5 uM), 68.95%; with LNCaP-IL6 cells (10 uM), 69.23%. Further, the “% Proliferation (vs control) 48 h LNCaP-IL6” value with LNCaP-IL6 cells (2.5 uM) was 52.42%; with LNCaP-IL6 cells (5 uM), 26.28%; with LNCaP-IL6 cells (10 uM) it was 16.19%. The “% Proliferation (vs control) 24 h DU145” value in the experiment with DU145 [1] (2.5 uM) worked out at 80.19%; with DU145 [1] (5 uM) it was 68.82%; in the experiment on DU145 [1] (10 uM), 54.07%. Moreover, the “% Proliferation (vs control) 48 h Du145” value with DU145 [1] (2.5 uM) came out at 67.45%; with DU145 [1] (5 uM), 35.62%; in the experiment on DU145 [1] (10 uM), 22.77%.

In the case of `C[C@H]1C=C2C(=O)OC3[C@H](Cc4ccccc4)C[C@H](C1)[C@]23O` (some centres unmarked) [Example 3, 7-benzyl-2a^1-hydroxy-4-methyl-4,5,5a,6,7,7a-hexahydroindeno[1,7-bc]furan-2(2a^1H)-one], the IC50 with NF-κB (Homo sapiens) came to 1.26 µM; in experiment [2] (Homo sapiens), 2.87 µM. The “% Proliferation (vs control) 24 h LNCaP-IL6” value in the experiment with LNCaP-IL6 cells (2.5 uM) is recorded as 57.10%; with LNCaP-IL6 cells (5 uM), 59.00%; in the experiment on LNCaP-IL6 cells (10 uM), 53.01%. In addition, the “% Proliferation (vs control) 48 h LNCaP-IL6” value in the experiment on LNCaP-IL6 cells (2.5 uM) is 27.82%; in the experiment with LNCaP-IL6 cells (5 uM) it was 18.15%; in the experiment on LNCaP-IL6 cells (10 uM), 12.49%. For the same compound, the figures for the “% Proliferation (vs control) 24 h DU145” value with DU145 [1] (2.5 uM), in the experiment on DU145 [1] (5 uM) and in the experiment with DU145 [1] (10 uM) were 56.33%, 52.11% and 44.48%, respectively. The entries for the “% Proliferation (vs control) 48 h Du145” value with DU145 [1] (2.5 uM), with DU145 [1] (5 uM) and in the experiment with DU145 [1] (10 uM) were 31.10%, 18.38% and 14.45%, respectively.

`C[C@H]1C=C2C(=O)O[C@@H]3CC[C@H](C1(C)C)[C@]23O` (stereo in doubt) [Example 5, 5,5a,6,7,7a,7b-hexahydro-7b-hydroxy-4,5,5-trimethyl-indeno[1,7-bc]furan-2(4H)-one]: the “Proliferation (vs control) Du145 (%) 24 h” value with DU145 [3] (24 h) came out at 28.13%; in the experiment with DU145 [4] (0.5 μM), 105.62%; in the experiment with DU145 [4] (1.0 μM), 101.40%; with DU145 [4] (2.5 μM) it was 72.14%; with DU145 [4] (5.0 μM), 54.75%; in the experiment on DU145 [4] (10.0 μM) it was 39.62%. Besides, the “Proliferation (vs control) Du145 (%) 24 h” value with DU145 [4] (50.0 μM) was found to be 14.36%. The “Proliferation (vs control) Du145 (%) 48 h” value in the experiment on DU145 [3] (48 h) amounted to 13.26%; in the experiment with DU145 [4] (0.5 μM), 98.92%; with DU145 [4] (1.0 μM), 93.59%; in the experiment with DU145 [4] (2.5 μM), 53.09%; with DU145 [4] (5.0 μM), 35.53%; with DU145 [4] (10.0 μM) it was 29.96%. Also, the “Proliferation (vs control) Du145 (%) 48 h” value with DU145 [4] (50.0 μM) worked out at 8.51%.

Take `C[C@H]1C=C2C(=O)OC3[C@H](c4ccccc4)C[C@H](C1)[C@]23O` (some centres unmarked) [Example 2, 2a^1-hydroxy-4-methyl-7-phenyl-4,5,5a,6,7,7a-hexahydroindeno[1,7-bc]furan-2(2a^1H)-one]: the IC50 with NF-κB (Homo sapiens) came to 0.33 µM; in experiment [2] (Homo sapiens), 1.18 µM. For the same compound, the figures for the “% Proliferation (vs control) 24 h LNCaP-IL6” value in the experiment with LNCaP-IL6 cells (2.5 uM), in the experiment with LNCaP-IL6 cells (5 uM) and in the experiment on LNCaP-IL6 cells (10 uM) were 81.79%, 81.21% and 70.45%, respectively. The entries for the “% Proliferation (vs control) 48 h LNCaP-IL6” value in the experiment on LNCaP-IL6 cells (2.5 uM), in the experiment with LNCaP-IL6 cells (5 uM) and in the experiment on LNCaP-IL6 cells (10 uM) were 79.56%, 57.14% and 20.19%, respectively. Also, the figures for the “% Proliferation (vs control) 24 h DU145” value in the experiment on DU145 [1] (2.5 uM), in the experiment with DU145 [1] (5 uM) and in the experiment with DU145 [1] (10 uM) were 90.64%, 68.55% and 63.86%, respectively. Further, the “% Proliferation (vs control) 48 h Du145” value with DU145 [1] (2.5 uM) came out at 68.04%; with DU145 [1] (5 uM), 34.07%; in the experiment on DU145 [1] (10 uM), 30.26%.
